Consider one compound from patent US20240082424A1, “CLATHRATE IN WHICH EQUOL IS INCLUDED IN CYCLODEXTRIN, EQUOL-ABSORBENT COMPOSITION CONTAINING SAID CLATHRATE, AND PRODUCTION METHOD THEREFOR” (DAICEL CORPORATION, priority 2020, published 2024).

The nature of data set [1]: Solubility test (equol concentration dissolved in water). As to conditions: thermodynamic from solid; 300 mg dried product A-1 or 10 mg equol in 10 mL water, stirred at room temperature 2 hours, 0.2-μm filtered; read-out: concentration of equol in the solution (solubility in water). It counts as physicochemical. The protocol: The dried product A-1 containing an equol clathrate prepared in <<Preparation of Equol Clathrate>> described above was subjected to a solubility test. As a control, a solubility test was performed on equol (available from LC Laboratories) alone.
Specifically, solubility tests were conducted under the following conditions.
300 mg of the dried product A-1 containing an equol clathrate was weighed and mixed with 10 mL of water. Then, the mixture was stirred at room temperature for 2 hours. This liquid was filtered through a 0.2-μm filter, resulting in a solution B-1 of the dried product A-1 containing an equol clathrate. The equol concentration of the solution B-1 was analyzed.
Meanwhile, 10 mg of equol (available from LC Laboratories) was weighed and subjected to the same operation, resulting in a liquid C-1 containing equol alone. The concentration of equol dissolved in the solution C-1 was analyzed.

Data set [2] is described as follows: Pharmacokinetics (PK) analysis by oral administration in rats. Format: in vivo, Crl:CD (SD) rats. To be noted: single oral dose, rat plasma, 0.5% CMC suspension, equol clathrate 100 mg/kg, equol 6.3 mg/kg. How it is done: The equol clathrate A-1 prepared in <<Preparation of Equol Clathrate>> was subjected to pharmacokinetics (PK) analysis using 6-week-old Crl:CD (SD) rats by oral administration. As a control, pharmacokinetics (PK) analysis of equol (available from LC Laboratories) alone was also performed.
Specifically, the administered dose of the equol clathrate A-1 was 100 mg/kg, whereas the dose of equol (available from LC Laboratories) was 6.3 mg/kg, an amount considered to be equivalent to 100 mg/kg of the equol clathrate A-1.
The administered dose of the equol clathrate A-1 and the administered dose of equol were each administered as a single oral dose to 3 animals/group. The test substance used for the administration sample was suspended in 0.5% CMC aqueous solution, and the administered volume was 10 mL/kg.
PK was measured using plasma, and blood was collected at 0 min, 30 min, 1 h, 2 h, 6 h, 12 h, and 24 h. After 24 hours of blood collection, the rats were euthanized.
Note that, in Table 2, “Cmax” means maximum blood concentration, “Tmax” means time to reach Cmax, and “AUC0-24” means area.

Values after ≈ are worked out from the molar mass of the structure shown.

As for `Oc1ccc([C@H]2COc3cc(O)ccc3C2)cc1` [equol], the solubility at 2 h in data set [1] turned out to be 100 µg/mL (≈ 413 µM). For the same compound, the Cmax in data set [2] (Crl:CD (SD), read-out: Cmax (maximum blood concentration)) was 41.6 ng/mL. Besides, the AUC0-24 (area) in data set [2] was 363 ng·h/mL.
